Source: ChEMBL document CHEMBL5674860, “Optimized Dual-Glo Assay to identify co-culture-induced drug vulnerabilities in 3D CRC models” (2024)
Where “and” joins values, the source holds several entries; their conditions need not be identical. Equal values may be shown once.

What was measured:
Format in all cases: functional, Homo sapiens
Design in all cases: dose or concentration left out as unconfirmed
[1] = test system: Colon cancer organoid; assay: Optimized Dual-Glo assay to identify co-culture induced drug vulnerabilities using donated chemical probes and chemogenomics kinase set in O06 CRC organoid and F06 CAF mono and co-culture. […] Cell viability is reported both mono and co-culture models.
[2] = test system: Colon cancer organoid; assay: Optimized Dual-Glo assay to identify co-culture induced drug vulnerabilities using donated chemical probes and chemogenomics kinase set in O20 CRC organoid and F20 CAF mono and co-culture. […] Cell viability is reported both mono and co-culture models.
[3] = test system: Colon cancer organoid; assay: Optimized Dual-Glo assay to identify co-culture induced drug vulnerabilities using donated chemical probes and chemogenomics kinase set in O14 CRC organoid and F14 CAF mono and co-culture. […] Cell viability is reported both mono and co-culture models.
[4] = Culture type Co-Culture, Transduced with Lucferase2-P2A-EGFP lentivirus
[5] = Culture type Co-Culture, Transduced with Renilla-dsRed lentivirus
[6] = Culture type Mono-Culture, Transduced with Lucferase2-P2A-EGFP lentivirus
[7] = Culture type Mono-Culture, Transduced with Renilla-dsRed lentivirus

Row | SMILES | Cell Viability [1, 4] | Cell Viability [1, 5] | Cell Viability [1, 6] | Cell Viability [1, 7] | Cell Viability [2, 4] | Cell Viability [2, 5] | Cell Viability [2, 6] | Cell Viability [2, 7] | Cell Viability [3, 4] | Cell Viability [3, 5] | Cell Viability [3, 6] | Cell Viability [3, 7]
1 | Cc1c(Nc2ccc(S(=O)(=O)N3CCN(C)CC3)cc2F)nc2ccc(-c3cnn(C4CC4)c3)cn2c1=O | 106.525% | 138.146% | 47.9872% | 100.536% | 100.034% | 149.535% | 70.24% | 85.351% | 89.9801% | 85.4908% | 97.5645% | 92.3914%
2 | O=C(NCCCN1CCOC1=O)c1cnc(NCc2cc(Br)ccc2Br)nc1NC1CCCC1 | 110.394% | 154.807% | 109.931% | 185.402% | 103.947% | 94.0994% | 97.7699% | 110.221% | 74.8932% | 125.798% | 157.235% | 136.857%
3 | CC1=C(C)C(=O)C(C(C)(C)CC(=O)N(CCCCSC[C@H]2O[C@@H](n3cnc4c(N)ncnc43)[C@@H]3OC(C)(C)O[C@@H]32)Cc2cccc(-c3ccc(Cl)cc3)c2)=C(C)C1=O | 82.0361% | 129.013% | 89.6281% | 110.922% | 97.2624% | 117.278% | 134.873% | 88.9157% | 111.496% | 127.734% | 88.6013% | 108.216%
4 | CCCCN(Cc1ccccc1)C(=O)c1ccc(S(=O)(=O)Nc2ccccc2)cc1 | 64.4698% | 76.2121% | 99.0346% | 112.912% | 74.981% | 116.955% | 117.076% | 107.638% | 108.863% | 102.946% | 107.066% | 103.133%
5 | Cl.Cl.c1ccc([C@@H]2C[C@H]2NC2CCNCC2)cc1 | 78.4875% | 97.0217% | 85.9094% | 106.355% | 42.5951% | 97.3617% | 75.8314% | 98.3245% | 82.3558% | 127.479% | 88.7328% | 113.061%
6 | COc1ccccc1C(=O)Nc1cc2c(cc1N1CCNCC1C)n(C)c(=O)n2C (stereo unspecified) | 112.155% | 138.916% | 92.5462% | 113.336% | 130.677% | 107.173% | 124.631% | 104.05% | 109.979% | 135.305% | 100.033% | 95.8386%
7 | O=C(/C=C/N1C[C@H]2C[C@@H]1CN2c1ccccn1)c1ccccc1O | 122.112% | 121.159% | 115.481% | 98.9347% | 98.7098% | 109.392% | 120.989% | 80.1119% | 76.8483% | 107.425% | 87.3467% | 104.591%
8 | O=C(N1CCS(=O)(=O)CC1)N1C[C@H](c2ccc(OC(F)(F)F)cc2)C[C@H](c2nc(C3CC3)no2)C1 [BAY-386] | 131.392% | 144.172% | 106.882% | 101.013% | 61.9652% | 114.29% | 99.9064% | 89.9943% | 116.117% | 119.771% | 94.8331% | 98.6833%
9 | CCCS(=O)(=O)c1nc(NC2CC2)cc(-c2ccc3c(ccn3C3CC(C)(C)NC(C)(C)C3)c2)n1 | 80.022% and 93.4216% | 88.9327% and 142.491% | 57.3495% and 53.1993% | 66.0436% and 80.8259% | 90.8821% and 132.572% | 94.2313% and 119.463% | 112.848% and 138.911% | 68.5534% and 89.7285% | 89.4811% and 97.6343% | 131.118% and 106.572% | 78.7545% and 88.3769% | 100.347% and 100.989%
10 | COCCc1ccc(-c2c(C)nc3c(N4CCOCC4)ccnn23)cn1 [JNJ-42396302] | 95.3565% | 88.7666% | 124.422% | 103.43% | 126.017% | 102.271% | 117.378% | 103.223% | 101.077% | 99.3561% | 103.596% | 90.5469%
11 | COc1cc(-c2cn([C@H]3CCc4ccccc4N(CC(F)(F)F)C3=O)nn2)ccc1-n1ccc(C)n1 | 93.4988% | 122.107% | 86.5665% | 106.482% | 70.0794% | 119.033% | 80.8006% | 95.6811% | 109.774% | 96.1466% | 102.384% | 99.9901%
12 | COCc1nc2cnc3cc(-c4c(C)noc4C)c(OC[C@H]4CCNC4)cc3c2n1[C@H](C)c1ccccc1 [GSK778] | 81.063% | 183.714% | 53.5183% | 186.322% | 27.5933% | 143.906% | 31.8546% | 105.119% | 59.3767% | 280.444% | 39.3913% | 175.876%
13 | COc1ccccc1C(=O)Nc1cc2c(cc1N1CCCC1)n(C)c(=O)n2C |  |  |  |  | 113.69% | 143.545% | 104.265% | 110.449% | 94.3985% | 117.237% | 96.8906% | 95.8256%
14 | CS(=O)(=O)N1CCN(Cc2cc3nc(-c4cccc5[nH]ncc45)nc(N4CCOCC4)c3s2)CC1 [PICTILISIB] | 43.124% | 60.0718% | 35.1251% | 58.2983% |  |  |  |  |  |  |  | 
